Test results: the NIST ThermoML archive (doi:10.1016/j.jct.2006.12.012)
Numbers after ± are expanded uncertainties.

Key:
[1] = 101 kPa, Liquid
[2] = xn = mol fraction of the nth substance listed; settings: 101 kPa, Liquid, x2 = 0

| SMILES | mass density ([1]; 298.15 K) | viscosity ([1]; 298.15 K) | mass density ([1]; 303.15 K) | viscosity ([1]; 303.15 K) | mass density ([1]; 308.15 K) | viscosity ([1]; 308.15 K) | mass density ([1]; 313.15 K) | viscosity ([1]; 313.15 K) | mass density ([1]; 318.15 K) | viscosity ([1]; 318.15 K) | viscosity ([2]; 298.15 K) | viscosity ([2]; 303.15 K) | viscosity ([2]; 308.15 K) | viscosity ([2]; 313.15 K) | viscosity ([2]; 318.15 K) |
| --- | --- | --- | --- | --- | --- | --- | --- | --- | --- | --- | --- | --- | --- | --- | --- |
| C[S+](C)[O-] [dimethyl sulfoxide] | 1096.29 ± 0.28 kg/m3 | 1.996 ± 0.024 mPa·s | 1091.44 ± 0.28 kg/m3 | 1.836 ± 0.022 mPa·s | 1086.41 ± 0.27 kg/m3 | 1.669 ± 0.02 mPa·s | 1081.59 ± 0.26 kg/m3 | 1.535 ± 0.019 mPa·s | 1076.46 ± 0.25 kg/m3 | 1.393 ± 0.017 mPa·s | – | – | – | – | – |
| O [water] + C[S+](C)[O-] | – | – | – | – | – | – | – | – | – | – | 0.8901 ± 0.012 mPa·s | 0.7973 ± 0.011 mPa·s | 0.7193 ± 0.0098 mPa·s | 0.653 ± 0.009 mPa·s | 0.5961 ± 0.0083 mPa·s |
